Results taken from patent publication USRE49850E1, “N-(pyridin-2-yl)-4-(thiazol-5-yl)pyrimidin-2-amine derivatives as therapeutic compounds” (AUCENTRA THERAPEUTICS PTY LTD, priority 2015, dated 2024).
Where two headings read alike, the source gives them in different places.

Legend:
[1] = system: MOLM-13; test: Cell viability assay, leukemia MOLM-13; assay type: cell-based; conditions: Homo sapiens, 72 h, read-out: Antiproliferative activity GI50 MOLM-13
Source text: (§1) Compounds from Example 1 were subjected to a standard MTT (3-(4,5-dimethylthiazol-2-yl)-2,5-diphenyltetrazolium bromide) and resazurin assays on solid tumour cell lines and leukemia cell lines, respectively, as previously reported (Wang S et al., J Med Chem 47:1662-1675, 2004 and Diab S. et al. CheMedChem 9:962-972, 2014).

[2] = system: MV4-11; test: Cell viability assay (resazurin, leukemia cell line) MV4-11; assay type: cell-based, human
Source text: as §1

[3] = target: CDK7H (Homo sapiens, UniProt P50613); test: Kinase assay CDK7H (radiometric profiling service); assay type: biochemical; conditions: for Ki: apparent Ki calculated from Km (ATP) and IC50, read-out: CDK inhibition Ki CDK7H
CDK7H, sequence (P50613 whole entry): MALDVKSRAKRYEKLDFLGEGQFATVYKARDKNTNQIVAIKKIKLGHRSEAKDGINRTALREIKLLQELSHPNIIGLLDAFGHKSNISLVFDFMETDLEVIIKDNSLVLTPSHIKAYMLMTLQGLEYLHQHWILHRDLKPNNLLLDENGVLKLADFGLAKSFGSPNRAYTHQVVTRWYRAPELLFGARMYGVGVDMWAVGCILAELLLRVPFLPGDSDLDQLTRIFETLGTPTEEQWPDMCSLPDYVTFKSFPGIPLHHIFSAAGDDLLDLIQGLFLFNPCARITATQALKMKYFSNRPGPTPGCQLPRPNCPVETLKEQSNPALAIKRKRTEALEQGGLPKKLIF
CDK7H, sequence (P51946 whole entry partner): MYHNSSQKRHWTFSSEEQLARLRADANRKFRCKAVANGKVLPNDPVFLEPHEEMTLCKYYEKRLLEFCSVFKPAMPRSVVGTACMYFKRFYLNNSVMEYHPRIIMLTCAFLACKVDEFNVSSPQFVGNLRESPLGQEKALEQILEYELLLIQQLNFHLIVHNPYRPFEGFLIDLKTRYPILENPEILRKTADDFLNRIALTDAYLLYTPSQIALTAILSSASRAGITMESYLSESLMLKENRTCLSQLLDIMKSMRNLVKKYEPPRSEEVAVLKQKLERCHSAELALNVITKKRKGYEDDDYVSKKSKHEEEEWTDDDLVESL
CDK7H, sequence (P51948 whole entry partner): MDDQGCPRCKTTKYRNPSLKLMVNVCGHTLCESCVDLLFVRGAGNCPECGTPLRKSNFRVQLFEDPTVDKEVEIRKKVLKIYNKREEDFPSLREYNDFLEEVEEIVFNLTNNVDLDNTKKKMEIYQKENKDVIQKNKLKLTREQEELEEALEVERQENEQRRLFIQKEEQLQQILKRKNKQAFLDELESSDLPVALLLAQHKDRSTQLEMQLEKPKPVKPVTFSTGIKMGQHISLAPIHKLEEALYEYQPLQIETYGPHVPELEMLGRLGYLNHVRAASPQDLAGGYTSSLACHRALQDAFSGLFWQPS
How it was run: (§2)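 IC50 (4-parameter fit) and apparent Ki from Km (ATP). CDK1B, CDK2A, CDK7H: outsourced radiometric. CDK4/D1: radiometric or ADP-Glo, RB-CTF substrate, 40 min at 37° C, ten concentrations from 10 μM down to 0.5 nM.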

[4] = system: KG-1; test: Cell viability assay, leukemia KG-1; assay type: cell-based; conditions: Homo sapiens, 72 h, read-out: Antiproliferative activity GI50 KG-1
Source text: as §1

[5] = target: T1, CDK6D3 (Homo sapiens, UniProt Q00534); test: Kinase assay CDK6/D3 (radiometric or ADP Glo); assay type: biochemical; conditions: apparent Ki calculated from Km (ATP) and IC50; read-out: CDK inhibition Ki CDK6D3
T1 construct: purchased Eurofins Pharma Discovery or Reaction Biology Corporation (service)
T1 sequence (Q00534 whole entry): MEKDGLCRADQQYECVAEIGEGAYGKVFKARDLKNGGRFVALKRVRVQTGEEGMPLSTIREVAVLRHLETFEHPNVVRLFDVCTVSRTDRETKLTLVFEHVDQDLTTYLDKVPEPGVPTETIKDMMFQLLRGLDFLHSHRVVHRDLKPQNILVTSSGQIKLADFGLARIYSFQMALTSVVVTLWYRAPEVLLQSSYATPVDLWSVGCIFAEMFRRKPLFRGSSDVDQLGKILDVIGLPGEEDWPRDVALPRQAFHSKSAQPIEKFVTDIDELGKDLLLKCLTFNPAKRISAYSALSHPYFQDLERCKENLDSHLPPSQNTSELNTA
T1 sequence (P30281 whole entry partner): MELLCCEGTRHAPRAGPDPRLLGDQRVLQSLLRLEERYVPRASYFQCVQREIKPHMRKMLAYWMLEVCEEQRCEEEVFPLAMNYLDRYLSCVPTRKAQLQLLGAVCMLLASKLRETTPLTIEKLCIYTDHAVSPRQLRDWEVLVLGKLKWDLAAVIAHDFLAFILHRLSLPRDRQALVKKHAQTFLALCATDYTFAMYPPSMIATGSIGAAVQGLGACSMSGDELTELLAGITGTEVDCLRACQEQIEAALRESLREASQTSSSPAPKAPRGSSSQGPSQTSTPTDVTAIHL
How it was run: (§3)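 Radiometric inhibition data for CDKs came from Eurofins or Reaction Biology profiling services; CDK4/D1 was also run in-house by ADP-Glo in […] pH 7.5, 20 mM MgCl2, 0.4 mM DTT, 0.1 mg/ml BSA with RB-CTF substrate, 40 min at 37 °C after ATP start. Ten-point 1:3 dilutions (10 μM–0.5 nM); four-parameter IC50, Ki from IC50 and ATP Km.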

[6] = target: T2, CDK4D1 (Homo sapiens, UniProt P11802); test: Kinase assay CDK4/D1 (radiometric or ADP Glo); assay type: biochemical; conditions: apparent Ki calculated from Km (ATP) and IC50; read-out: CDK inhibition Ki CDK4D1
T2 construct: purchased Eurofins Pharma Discovery or Reaction Biology Corporation (service)
T2 sequence (P11802 whole entry): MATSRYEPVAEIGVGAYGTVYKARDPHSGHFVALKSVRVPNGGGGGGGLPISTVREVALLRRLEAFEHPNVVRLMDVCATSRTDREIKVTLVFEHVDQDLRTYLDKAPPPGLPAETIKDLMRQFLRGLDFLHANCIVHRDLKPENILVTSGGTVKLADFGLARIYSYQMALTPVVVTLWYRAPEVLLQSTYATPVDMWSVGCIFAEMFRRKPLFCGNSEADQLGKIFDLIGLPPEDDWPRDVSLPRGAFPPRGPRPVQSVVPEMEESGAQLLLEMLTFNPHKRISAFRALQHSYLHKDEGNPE
T2 sequence (P24385 whole entry partner): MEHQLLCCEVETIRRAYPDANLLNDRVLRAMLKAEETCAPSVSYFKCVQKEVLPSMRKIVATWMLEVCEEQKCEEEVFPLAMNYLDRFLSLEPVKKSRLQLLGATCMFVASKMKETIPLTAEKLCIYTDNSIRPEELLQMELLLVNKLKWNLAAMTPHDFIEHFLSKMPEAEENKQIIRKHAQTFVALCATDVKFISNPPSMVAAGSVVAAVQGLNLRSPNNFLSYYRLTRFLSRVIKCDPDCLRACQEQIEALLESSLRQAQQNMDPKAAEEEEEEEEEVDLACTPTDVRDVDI
How it was run: as §2

[7] = system: MDA-MB-453; test: Cell viability assay (MTT, solid tumour cell line) MDA-MB-453; assay type: cell-based, human
Source text: as §1

[8] = target: CDK1B (Homo sapiens, UniProt P06493); test: Kinase assay CDK1B (radiometric profiling service); assay type: biochemical; conditions: for Ki: apparent Ki calculated from Km (ATP) and IC50, read-out: CDK inhibition Ki CDK1B
CDK1B, sequence (P06493 whole entry): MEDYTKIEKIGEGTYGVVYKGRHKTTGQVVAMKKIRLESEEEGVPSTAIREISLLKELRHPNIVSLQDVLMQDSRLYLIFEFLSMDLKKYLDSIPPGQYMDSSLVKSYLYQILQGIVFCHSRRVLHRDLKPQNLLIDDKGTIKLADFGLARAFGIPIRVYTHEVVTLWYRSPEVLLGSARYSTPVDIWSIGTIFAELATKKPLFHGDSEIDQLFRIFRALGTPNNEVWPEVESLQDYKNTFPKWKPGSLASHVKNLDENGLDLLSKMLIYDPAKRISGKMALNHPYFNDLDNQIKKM
CDK1B, sequence (P14635 whole entry partner): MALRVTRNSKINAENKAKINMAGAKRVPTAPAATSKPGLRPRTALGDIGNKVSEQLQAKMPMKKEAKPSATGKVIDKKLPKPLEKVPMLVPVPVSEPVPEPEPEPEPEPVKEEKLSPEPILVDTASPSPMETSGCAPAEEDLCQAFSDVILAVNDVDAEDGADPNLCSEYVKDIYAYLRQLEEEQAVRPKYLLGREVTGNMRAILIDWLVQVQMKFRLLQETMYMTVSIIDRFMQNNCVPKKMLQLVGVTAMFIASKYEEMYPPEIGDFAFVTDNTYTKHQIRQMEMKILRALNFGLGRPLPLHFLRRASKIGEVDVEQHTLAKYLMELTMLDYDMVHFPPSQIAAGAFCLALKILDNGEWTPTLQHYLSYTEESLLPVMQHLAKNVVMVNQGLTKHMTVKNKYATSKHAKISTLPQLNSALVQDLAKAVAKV
How it was run: as §2

[9] = target: CDK 2A (Homo sapiens, UniProt P24941); test: Kinase assay CDK2A (radiometric profiling service); assay type: biochemical; conditions: for Ki: apparent Ki calculated from Km (ATP) and IC50, read-out: CDK inhibition Ki CDK 2A
How it was run: as §2

[10] = target: T3, CDK9T1 (Homo sapiens, UniProt P50750); test: Kinase assay CDK9/T1 (radiometric or ADP Glo); assay type: biochemical; conditions: apparent Ki calculated from Km (ATP) and IC50; read-out: CDK inhibition Ki CDK9T1
T3 construct: purchased Eurofins Pharma Discovery or Reaction Biology Corporation (service)
T3 sequence (P50750 whole entry): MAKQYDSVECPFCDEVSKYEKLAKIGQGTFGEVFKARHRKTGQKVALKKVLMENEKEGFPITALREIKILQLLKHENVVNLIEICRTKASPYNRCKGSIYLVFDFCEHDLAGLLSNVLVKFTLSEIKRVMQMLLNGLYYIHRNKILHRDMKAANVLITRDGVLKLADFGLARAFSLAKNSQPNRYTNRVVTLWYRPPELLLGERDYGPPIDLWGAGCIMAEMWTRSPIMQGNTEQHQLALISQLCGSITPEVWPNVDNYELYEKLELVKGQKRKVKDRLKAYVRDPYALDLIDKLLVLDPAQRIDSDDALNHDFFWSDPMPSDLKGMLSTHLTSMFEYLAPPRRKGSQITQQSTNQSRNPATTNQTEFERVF
T3 sequence (O60563 whole entry partner): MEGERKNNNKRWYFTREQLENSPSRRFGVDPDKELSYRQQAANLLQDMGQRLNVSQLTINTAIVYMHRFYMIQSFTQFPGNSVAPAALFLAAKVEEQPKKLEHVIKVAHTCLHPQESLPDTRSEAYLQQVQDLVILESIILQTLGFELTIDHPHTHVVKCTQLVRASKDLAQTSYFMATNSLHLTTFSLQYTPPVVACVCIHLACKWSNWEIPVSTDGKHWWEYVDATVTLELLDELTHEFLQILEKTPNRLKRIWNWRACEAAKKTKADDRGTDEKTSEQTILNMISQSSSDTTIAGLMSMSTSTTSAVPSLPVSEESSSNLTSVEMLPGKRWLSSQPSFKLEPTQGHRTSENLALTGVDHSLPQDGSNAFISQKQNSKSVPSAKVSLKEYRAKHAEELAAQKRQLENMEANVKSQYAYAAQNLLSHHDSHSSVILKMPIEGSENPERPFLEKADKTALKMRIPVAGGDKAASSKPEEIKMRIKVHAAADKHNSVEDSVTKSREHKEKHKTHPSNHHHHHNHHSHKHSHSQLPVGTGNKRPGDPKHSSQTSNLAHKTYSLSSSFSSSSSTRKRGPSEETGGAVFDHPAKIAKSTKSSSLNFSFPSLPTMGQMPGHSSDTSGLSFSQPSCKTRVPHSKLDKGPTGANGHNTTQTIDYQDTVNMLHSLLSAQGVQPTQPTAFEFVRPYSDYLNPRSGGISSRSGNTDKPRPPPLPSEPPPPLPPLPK
How it was run: as §3

[11] = system: A2780; test: Cell viability assay, ovarian A2780; assay type: cell-based; conditions: Homo sapiens, read-out: Antiproliferative activity GI50 A2780
Source text: as §1

[12] = system: D283; test: Cell viability assay, medulloblastoma D283; assay type: cell-based; conditions: Homo sapiens, read-out: Antiproliferative activity GI50 D283
Source text: as §1

[13] = system: D458; test: Cell viability assay, medulloblastoma D458; assay type: cell-based; conditions: Homo sapiens, 72 h, read-out: Antiproliferative activity GI50 D458
Source text: as §1

[14] = Pharmacokinetics in rat; assay type: in vivo, Wistar Rat; conditions: po, 20 mg/kg in rat; for bioavailability: vs IV dosing, read-out: Oral bioavailability (F %)
Procedure: (§4) For pharmacokinetic measurements, healthy male adult Balb/C mice (weighing 20-25 g) or Wistar Rat (weighing 250-350 g) were split into weight matched groups of 3 per group. […] Blood samples were collected from animals by jugular vein cannula (rats) or under anaesthesia by cardiac puncture (mice) at time zero and at intervals up to 24 h. Harvested blood was centrifuged at 7000×G for 2 minutes, and the plasma aspirated and frozen at −20° C. until analysis. Quantitative analysis of compound in plasma was carried out using LC-MS/MS methods. Pharmacokinetic data derived using Phoenix WinNonlin 6.4® non-compartmental analysis. Oral bioavailability (% F) was calculated by taking the ratio of dose-normalised AUC values from oral versus parenteral (IV) dosing.

[15] = Pharmacokinetics in mice; assay type: in vivo, Balb/C mice; conditions: po, 10 mg/kg in mice
Procedure: as §4

[16] = Homo sapiens, MV4-11, 72 h; read-out: Anti-proliferative activity GI50 MV4-11
[17] = Homo sapiens, MDA-MB-453, 72 h; read-out: Anti-proliferative activity GI50 MDA-MB-453

| Compound | GI50 [1] | GI50 [2, 16] | Ki [3] | GI50 [4] | Ki [5] | Ki [6] | GI50 [7, 17] | Ki [8] | Ki [9] | Ki [10] | other results |
| --- | --- | --- | --- | --- | --- | --- | --- | --- | --- | --- | --- |
| CCc1nc(C)c(-c2ccnc(Nc3ccc(N4CCN(CC)CC4)cn3)n2)s1 [Compound 9, 4-(2-ethyl-4-methylthiazol-5-yl)-N-(5-(4-ethylpiperazin-1-yl)pyridin-2-yl)pyrimidin-2-amine] | 293 ± 28 nM | 591 ± 83 nM | > 5000 nM | 47 ± 15 nM | 1670 nM | 10 nM | 3320 ± 576 nM | > 5000 nM | 1800 nM | > 5000 nM | – |
| CNc1nc(C)c(-c2ccnc(Nc3ccc(N4CCN(C)CC4)cn3)n2)s1 [Compound 29, N,4-dimethyl-5-(2-((5-(4-methylpiperazin-1-yl)pyridin-2-yl)amino)pyrimidin-4-yl)thiazol-2-amine] | – | – | > 5000 nM | – | 50 nM | 5 nM | – | 3210 nM | 650 nM | 1820 nM | GI50 ([11]; A2780, 72 h): 282 ± 58 nM; GI50 ([2]; Homo sapiens, MV4-11, 72 h, read-out: Anti-proliferative activity GI50 MV4-11): 297 ± 61 nM; GI50 ([12]; D283, 72 h): 335 ± 97 nM; GI50 ([7]; Homo sapiens, MDA-MB-453, 72 h, read-out: Anti-proliferative activity GI50 MDA-MB-453): 544 ± 78 nM; GI50 [13]: 326 ± 29 nM |
| CNc1nc(C)c(-c2nc(Nc3ccc(N4CCN(C)CC4)cn3)ncc2F)s1 [Compound 31, 5-(5-fluoro-2-((5-(4-methylpiperazin-1-yl)pyridin-2-yl)amino)pyrimidin-4-yl)-N,4-dimethylthiazol-2-amine] | – | 11 ± 4 nM | > 5000 nM | – | 10 nM | 2 nM | 381 ± 96 nM | > 5000 nM | 365 nM | 1910 nM | GI50 ([11]; A2780, 72 h, Ovarian): 94 ± 1 nM; GI50 ([12]; D283, 72 h, Medulloblastoma): 489 ± 22 nM; GI50 ([13]; Medulloblastoma): 645 ± 97 nM |
| CNc1nc(C)c(-c2nc(Nc3ccc(N4CCN(C(C)=O)CC4)cn3)ncc2C#N)s1 [Compound 34, 2-((5-(4-acetylpiperazin-1-yl)pyridin-2-yl)amino)-4-(4-methyl-2-(methylamino)thiazol-5-yl)pyrimidine-5-carbonitrile] | 408 ± 25 nM | 174 ± 22 nM | > 5000 nM | 112 ± 45 nM | – | – | 813 ± 22 nM | > 5000 nM | 4470 nM | > 5000 nM | AUC ([14]; male, Wistar, plasma): 10.2 µM·h; Cmax ([14]; male, Wistar, plasma): 600 nM; half-life ([14]; male, Wistar, plasma): 4.6 h; bioavailability ([14]; male, Wistar, plasma): 39% |
| Cc1nc(N(C)C)sc1-c1nc(Nc2ccc(N3CCN(C)CC3)cn2)ncc1F [Compound 46, 5-(5-fluoro-2-((5-(4-methylpiperazin-1-yl)pyridin-2-yl)amino)pyrimidin-4-yl)-N,N,4-trimethylthiazol-2-amine] | 98 ± 12 nM | 73 ± 10 nM | > 5000 nM | 5 ± 4 nM | 55 nM | 2 nM | 638 ± 42 nM | > 5000 nM | 1390 nM | 4360 nM | – |
| CNc1nc(C)c(-c2nc(Nc3ccc(N4CCC(N(C)C)CC4)cn3)ncc2F)s1 [Compound 47, 5-(2-((5-(4-(dimethylamino)piperidin-1-yl)pyridin-2-yl)amino)-5-fluoropyrimidin-4-yl)-N,4-dimethylthiazol-2-amine] | 76 ± 8 nM | 107 ± 22 nM | > 5000 nM | 6 ± 1 nM | 279 nM | 2 nM | 349 ± 36 nM | > 5000 nM | 3340 nM | > 5000 nM | – |
| Cc1nc(NC2CCCC2)sc1-c1ccnc(Nc2ccc(N3CCOCC3)cn2)n1 [Compound 71, N-cyclopentyl-4-methyl-5-(2-((5-morpholinopyridin-2-yl)amino)pyrimidin-4-yl)thiazol-2-amine] | – | 335 ± 184 nM | > 5000 nM | – | 29 nM | 5 nM | 3680 ± 285 nM | > 5000 nM | 2940 nM | > 5000 nM | AUC ([15]; male, Balb/C, mouse, plasma): 5.9 µM·h; half-life ([15]; male, Balb/C, mouse, plasma): 5 h; bioavailability ([15]; male, Balb/C, mouse, plasma, vs IV dosing, read-out: Oral bioavailability (F %)): 100%; Cmax [15]: 1600 nM; AUC ([14]; male, Wistar, plasma): 15.9 µM·h; bioavailability ([14]; male, Wistar, plasma): 27%; Cmax [14]: 1400 nM; t1/2 [14]: 2.8 h |
| Cc1nc(N(C)C2CCCC2)sc1-c1ccnc(Nc2ccc(N3CCN(C)CC3)cn2)n1 [Compound 86, N-cyclopentyl-N,4-dimethyl-5-(2-((5-(4-methylpiperazin-1-yl)pyridin-2-yl)amino)pyrimidin-4-yl)thiazol-2-amine] | – | 20 ± 15 nM | > 5000 nM | – | 10 nM | 2 nM | 3360 ± 286 nM | > 5000 nM | 476 nM | 1800 nM | GI50 ([11]; A2780, 72 h, Ovarian): 72 ± 20 nM; GI50 ([12]; D283, 72 h, Medulloblastoma): 358 ± 100 nM; GI50 ([13]; Medulloblastoma): 617 ± 112 nM |
| Cc1[nH]c(=O)sc1-c1ccnc(Nc2ccc(N3CCN(C)CC3)cn2)n1 [Compound 92, 4-methyl-5-(2-((5-(4-methylpiperazin-1-yl)pyridin-2-yl)amino)pyrimidin-4-yl)thiazol-2(3H)-one] | – | 752 ± 33 nM | – | – | 155 nM | 27 nM | 3330 ± 864 nM | – | – | 950 nM | melting point: 228 to 230 °C; remaining activity at 10 µM ([3]; compound at 10 μM, read-out: % remaining enzymatic activity at 10 μM CDK7H): 24%; remaining activity at 10 µM ([8]; compound at 10 μM, read-out: % remaining enzymatic activity at 10 μM CDK1B): 51%; remaining activity at 10 µM ([9]; compound at 10 μM, read-out: % remaining enzymatic activity at 10 μM CDK 2A): 61% |
